The record followed here is PMC6775102, “Lifespan-increasing drug nordihydroguaiaretic acid inhibits p300 and activates autophagy” (NPJ Aging and Mechanisms of Disease, 2019).

The target of the experiment is T1, p300 (Homo sapiens, UniProt Q09472).
T1 construct: gene EP300; p300 BHC (bromodomain, catalytic acetyltransferase domain, and C/H3 domain, amino acids 965–1810); also p300 HAT (amino acids 1284–1673)
T1 sequence (Q09472 965-1810): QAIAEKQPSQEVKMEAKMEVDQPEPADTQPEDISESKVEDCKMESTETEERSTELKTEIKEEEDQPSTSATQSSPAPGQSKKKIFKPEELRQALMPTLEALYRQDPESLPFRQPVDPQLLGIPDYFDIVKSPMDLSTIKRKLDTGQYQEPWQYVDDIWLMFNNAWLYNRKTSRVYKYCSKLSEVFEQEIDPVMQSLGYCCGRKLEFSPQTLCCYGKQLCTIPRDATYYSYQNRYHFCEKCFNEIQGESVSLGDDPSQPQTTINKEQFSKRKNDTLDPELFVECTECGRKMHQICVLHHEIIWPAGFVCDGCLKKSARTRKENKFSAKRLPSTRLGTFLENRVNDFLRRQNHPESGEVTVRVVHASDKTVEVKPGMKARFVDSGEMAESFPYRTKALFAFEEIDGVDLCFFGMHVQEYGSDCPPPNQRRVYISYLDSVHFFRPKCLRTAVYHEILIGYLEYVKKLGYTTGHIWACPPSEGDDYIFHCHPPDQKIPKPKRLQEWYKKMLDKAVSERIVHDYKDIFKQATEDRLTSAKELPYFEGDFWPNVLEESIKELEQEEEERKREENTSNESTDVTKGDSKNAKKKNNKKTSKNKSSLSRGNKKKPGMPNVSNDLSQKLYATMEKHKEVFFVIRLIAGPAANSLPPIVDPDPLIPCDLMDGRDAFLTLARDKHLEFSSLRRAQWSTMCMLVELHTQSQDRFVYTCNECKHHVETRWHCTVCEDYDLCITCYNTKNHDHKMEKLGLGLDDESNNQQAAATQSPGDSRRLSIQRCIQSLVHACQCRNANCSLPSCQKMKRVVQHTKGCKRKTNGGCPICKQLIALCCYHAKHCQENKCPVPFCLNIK
Briefly: fluorimetric acetyltransferase assay with recombinant p300 BHC and H3 peptide; second assay with p300 HAT; supported by CETSA of p300 HAT in HEK293T cells (+[…] °C). The experiment is classed as biochemical.

In the case of `CC(Cc1ccc(O)c(O)c1)C(C)Cc1ccc(O)c(O)c1` (stereo not shown) [nordihydroguaiaretic acid], the IC50 (usually the point on the concentration scale where inhibition reaches its midpoint) is 10.3 µM.
